Laboratory results from patent US20160199349A1 (priority 2012, published 2016).
Where “and” joins values, the source holds several entries; their conditions need not be identical. Equal entries are not always repeated.

Key:
rat = experiment: animal or person; format: in vivo
[1] = tested on: male albino rats (Sprague Dawley); settings: rat, in vivo, ip

SMILES: CC(C)Cc1ccc(C(C)C(=O)O)cc1 (stereo not drawn) [ibuprofen]
- ED50 (rat; Rattus norvegicus, ip, 0.5 h, read-out: ED50 (95% CI)): 139 mg/kg
- timepoint of peak effect (rat; rat, in vivo): 30 min p. appl.
- ED25 (95% CI) [1]: 117 mg/kg and 117 (90.1-196) mg/kg
